The text below walks through data of patent US11246961B2, “Engineered scaffolds for vascularized tissue repair” (The Regents of the University of California, priority 2016, dated 2022).

Entries after “also recorded” stand apart in the source; their conditions may differ.

Experiment [1] concerns HECFCs. Briefly: flow cytometry ligand-cell binding, HECFCs. The arrangement: species or system human. Conditions: biotinylated ligand 1 μM, streptavidin-phycoerythrin. As to the method: (§1) FIG. 10 presents flow cytometry data from an assay of binding affinity of LXW7 and GRGD (SEQ ID NO: 1) to different cell types. Tests included EPCs/ECs from different sources, including HECFCs (A), HCAECs (B), HMVECs (C), and THP-1 monocytes (D), Platelets (E), as well as K562 cells engineered to highly express αvβ3 (αvβ3-K562, F), and αIIbβ3 (αIIbβ3-K562, G). Cells were incubated with the LXW7-bio, GRGD-bio (SEQ ID NO: 1), or D-Biotin peptide and subsequently incubated with streptavidin-phycoerythrin. Flow cytometry analysis was performed to determine the binding affinity of the ligands. Samples treated with D-biotin were used as negative controls.
(§2) LXW7-bio (1 μM) was incubated with 3×10^5 HECFCs, HCAECs, HMVECs, αvβ3-K562 and αIIbβ3-K562 cells and THP-1 monocytes and 1×10^8 platelets in binding buffer (HEPES containing 10% FBS) on ice for 30 minutes. The samples were washed three times with DPBS containing 1% FBS and incubated with 2 μg/ml of streptavidin-phycoerythrin on ice for 30 minutes and then washed with DPBS. Samples were analyzed on a BD Fortessa LSR Cell Analyzer and further data analysis and gating were performed using FlowJo software (Treestar, Inc.).

Experiment [2] concerns HCAECs. Briefly: flow cytometry ligand-cell binding, HCAECs. Conditions: biotinylated ligand 1 μM, streptavidin-phycoerythrin. The arrangement: species or system human. As for the experimental part:
as §1, §2
(In general: In flow cytometry, cells or beads pass a laser one at a time.)

Experiment [3] concerns the target T1, integrin αvβ3 (Homo sapiens, UniProt P05106+P06756).
T1 construct: expressed in transfected cells; host or cells: K562 myeloid leukemia cells (αvβ3-K562), provided by Dr. Yoshikazu Takada
Briefly: flow cytometry ligand-cell binding, αvβ3-K562 cells. Conditions: K562 cells highly expressing integrin αvβ3. As to the method:
as §1
Human coronary artery endothelial cells (HCAECs) were purchased from ATCC. Human cardiac microvascular endothelial cells (HMVECs) were purchased from Lonza. THP-1 monocytes were obtained from Dr. Pamela Lein (University of California, Davis). […]
LXW7-bio (1 μM) was incubated with 3×10^5 HECFCs, HCAECs, HMVECs, αvβ3-K562 and αIIbβ3-K562 cells and THP-1 monocytes and 1×10^8 platelets in binding buffer (HEPES containing 10% FBS) on ice for 30 minutes. […] Samples were analyzed on a BD Fortessa LSR Cell Analyzer and further data analysis and gating were performed using FlowJo software (Treestar, Inc.).

For experiment [4], the system named is HCAECs. Nature of the experiment: on-bead whole cell binding assay, HCAECs. It counts as cell-based, human. The text has this: (§3) Human coronary artery endothelial cells (HCAECs) were purchased from ATCC. Human cardiac microvascular endothelial cells (HMVECs) were purchased from Lonza. THP-1 monocytes were obtained from Dr. Pamela Lein (University of California, Davis). The myeloid leukemia K562 cells that have been transfected with human integrin αvβ3 gene (αvβ3-K562 cells) were provided by Dr. Yoshikazu Takada and the K562 cells transfected with human integrin αIIbβ3 gene (αIIb3-K562 cells) were provided Dr. Jennifer Cochran (Stanford University)
(§4) HECFCs, HCAECs, HMVECs and THP-1 monocytes were cultured in their respective growth medium as described in Example 1. For cell bead-binding assay, 6×10^5 HECFCs, HCAECs, HMVECs or THP-1 monocytes in 2 mL of their respective culture medium were added to an ultra-low attachment 35-mm petri dish (Corning Incorporated) followed by resin beads (Lam et al. (1991) Nature 354:82). The dishes were incubated in a shaking incubator at 37° C., 5% CO2 for various time points at 40 rpm. For platelet bead-binding assay, the platelets isolated as described in Example 1 were added to an ultra-low attachment 35-mm petri dish and incubated with the resin beads in the shaking incubator as described for the cell-bead binding assy. Phase contrast images were taken at different time points using an Olympus IX81 microscope.
Three integrin-targeting ligands—LXY30 (α3β1), LLP2A (α4β1) and LXW7 (αvβ3)—were tested for their binding activities to EPCs and ECs. […] LXY30 only bound to ECs, not to EPCs. LLP2A only bound to EPCs, not to ECs. LXW7 bound well to both EPCs and ECs.

Experiment [5] concerns HCAECs. Briefly: MTS assay of EC proliferation on LXW7. The experiment is classed as cell-based, human. Conditions: vs D-biotin treated surface; up to 5 days. As for the experimental part: The 96-well plates from Example 3 were treated with 1 μM Avidin solution for 1 hour at room temperature. Avidin coated wells were rinsed three times with DPBS and treated with LXW7-bio (1 μM), with D-biotin (1 μM) serving as the control. After 1 hour, the wells were washed three times with DPBS and blocked with 1% BSA for 1 hour. 3×10^3 viable HCAECs were seeded per well and cultured in EGM-2 media for 5 days. MTS assay was performed at each day as per the manufacturer instructions (Interchim) and analyzed on SpectraMax-3 plate reader (Molecular Devices).
A general note: Formazan colour is commonly taken as a measure of viable cells.

Experiment [6] deals with THP-1 monocytes. Briefly: on-bead whole cell binding assay, THP-1 monocytes. It counts as cell-based. Particulars: 10 minutes, 30 minutes or 2 hours.
From the text: as §3
as §4, with “microscope. […]” for “microscope.”

The subject of experiment [7] is platelets. Nature of the experiment: platelet-bead binding assay. The experiment is classed as cell-based. Conditions: 10 minutes, 30 minutes or 2 hours. As for the experimental part: HECFCs, HCAECs and HMVECs were cultured in EC expansion medium EGM-2 and THP-1 monocytes were cultured in RPMI Medium 1640 (Gibco) supplemented with 10% fetal bovine serum (FBS, Hyclone) and 0.05 mM 2-mercaptoethanol (Sigma). αvβ3-K562 cells and αIIbβ3-K562 cells were cultured in RPMI Medium 1640 plus 10% FBS. Platelet-rich plasma (PRP) was obtained from UC Davis Medical Center (Sacramento, Calif.). Fresh PRP (260×10^3 platelets/μL) was centrifuged, and the pellets were resuspended in Dulbecco's Phosphate Buffer Saline (DPBS; Hyclone) containing 2 mM CaCl2) and MgCl2 to a final concentration of 1×10^8 platelets/mL.
as §4, with “Phase contrast images were taken at different time points using an Olympus IX81 microscope.” left out

T1 sequence (P06756 31-889 limits assumed): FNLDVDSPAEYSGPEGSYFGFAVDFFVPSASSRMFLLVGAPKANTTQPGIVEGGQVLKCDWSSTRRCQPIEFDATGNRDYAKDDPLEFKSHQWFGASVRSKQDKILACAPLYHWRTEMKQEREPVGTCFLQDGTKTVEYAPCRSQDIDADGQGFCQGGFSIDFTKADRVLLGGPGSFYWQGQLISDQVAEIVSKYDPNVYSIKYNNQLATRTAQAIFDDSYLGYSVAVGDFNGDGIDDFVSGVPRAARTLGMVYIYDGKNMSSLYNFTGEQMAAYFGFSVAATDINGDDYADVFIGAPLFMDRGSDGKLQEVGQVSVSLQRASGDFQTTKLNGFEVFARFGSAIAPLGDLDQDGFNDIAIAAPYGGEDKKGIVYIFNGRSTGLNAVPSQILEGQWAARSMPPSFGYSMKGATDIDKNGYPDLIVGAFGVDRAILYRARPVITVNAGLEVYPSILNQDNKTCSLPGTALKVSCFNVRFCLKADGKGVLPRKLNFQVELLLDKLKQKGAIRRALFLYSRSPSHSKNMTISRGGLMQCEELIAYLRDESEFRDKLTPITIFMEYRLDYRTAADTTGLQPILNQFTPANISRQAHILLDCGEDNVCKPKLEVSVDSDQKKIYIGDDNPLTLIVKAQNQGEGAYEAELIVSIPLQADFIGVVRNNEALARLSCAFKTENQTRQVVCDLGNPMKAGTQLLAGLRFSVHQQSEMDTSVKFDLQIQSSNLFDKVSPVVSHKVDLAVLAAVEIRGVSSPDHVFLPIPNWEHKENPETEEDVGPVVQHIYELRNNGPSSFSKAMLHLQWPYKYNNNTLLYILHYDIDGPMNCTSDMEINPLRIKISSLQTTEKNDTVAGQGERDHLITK
T1 sequence (P06756 891-1048 partner limits assumed): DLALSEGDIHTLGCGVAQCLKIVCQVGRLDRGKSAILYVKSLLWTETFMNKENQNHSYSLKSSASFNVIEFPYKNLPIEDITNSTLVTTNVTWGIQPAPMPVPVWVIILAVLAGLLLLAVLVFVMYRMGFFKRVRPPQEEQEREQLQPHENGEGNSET
T1 sequence (P05106 27-788): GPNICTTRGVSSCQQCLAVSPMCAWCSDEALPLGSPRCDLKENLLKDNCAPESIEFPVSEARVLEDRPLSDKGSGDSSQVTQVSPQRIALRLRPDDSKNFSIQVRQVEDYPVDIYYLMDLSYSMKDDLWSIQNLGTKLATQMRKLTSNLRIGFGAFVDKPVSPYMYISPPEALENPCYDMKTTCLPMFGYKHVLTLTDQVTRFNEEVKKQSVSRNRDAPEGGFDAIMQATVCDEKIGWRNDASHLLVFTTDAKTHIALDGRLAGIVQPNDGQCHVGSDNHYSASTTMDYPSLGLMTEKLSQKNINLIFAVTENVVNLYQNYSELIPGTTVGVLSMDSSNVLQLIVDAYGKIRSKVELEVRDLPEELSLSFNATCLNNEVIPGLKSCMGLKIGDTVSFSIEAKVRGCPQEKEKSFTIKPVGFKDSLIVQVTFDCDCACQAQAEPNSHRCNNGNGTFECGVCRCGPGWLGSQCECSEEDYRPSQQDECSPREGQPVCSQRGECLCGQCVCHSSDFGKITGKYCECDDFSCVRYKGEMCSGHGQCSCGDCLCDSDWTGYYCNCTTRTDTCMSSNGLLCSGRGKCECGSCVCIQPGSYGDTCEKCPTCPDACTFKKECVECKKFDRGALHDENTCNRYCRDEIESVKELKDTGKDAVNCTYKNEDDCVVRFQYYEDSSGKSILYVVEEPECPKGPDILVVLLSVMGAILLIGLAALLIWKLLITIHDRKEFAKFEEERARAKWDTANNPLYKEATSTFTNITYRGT

In the case of cGRGDdvc [LXW7], the “binding affinity to HECFCs by flow cytometry” value in experiment [1] is reported as “higher binding affinity with different types of EPCs/ECs than conventional GRGD peptide”. Further, in experiment [2], the “binding affinity to HCAECs by flow cytometry” value is given as “higher binding affinity with different types of EPCs/ECs than conventional GRGD peptide”. In experiment [3], the “binding affinity to αvβ3-K562 cells by flow cytometry” value was “higher binding affinity than GRGD”. Further, in experiment [4] (10 minutes, 30 minutes or 2 hours), the “attachment of HCAECs to beads displaying LXW7” value is recorded as “efficiently supported attachment of EPCs/ECs from different sources; also recorded: efficiently supported EPC/EC attachment”. Moreover, the “binding of HCAECs to ligand-displaying resin beads” value in experiment [4] (2 hours incubation) was “bound both HECFCs and HCAECs”. The “EC proliferation on LXW7 treated surface (MTS)” value in experiment [5] is “significantly promoted EC proliferation after 48 hours in culture”. Also, the “attachment of THP-1 monocytes to beads displaying LXW7” value in experiment [6] is on record as “did not support effective attachment of THP-1 monocytes”. In experiment [7], the “attachment of platelets to beads displaying LXW7” value was “did not support effective attachment”.
